Biological target: T1, human PDE4B1 (Homo sapiens, UniProt Q07343)
T1 construct: host or cells: Sf9 cells
Assay: cAMP HTRF assay to determine the activity of hPDE4B1
Format: biochemical
Settings: inhibition of PDE4B at a test concentration of 1 μM; for Inhibition in %: 1 µM
Description: Biological Testing cAMP HTRF® Assay to Determine the Activity of hPDE4B1
The inhibiting effect of the compounds on the enzyme activity of human PDE4B1 was measured by the quantification of 5′-adenosine monophosphate (5′-AMP), which is formed from 3′,5′-cyclic adenosine monophosphate (cAMP). Human recombinant enzyme, expressed in Sf9 cells, and the HTRF (homogeneous time-resolved fluorescence) detection method were used in the assay.
The test compound or water (control) was mixed with the human recombinant PDE4B1 enzyme (4.8 U) in a buffer consisting of 44.4 mM tris-HCl, 5.28 mM MgCl2, 2.64 mM DTT and 0.044% Tween 20 (pH 7.8). After adding the cAMP enzyme substrate (final concentration 40 nM), the mixture was incubated for 30 minutes at room temperature. Then a fluorescence acceptor (Dye2 marked with cAMP), a fluorescence donor (anti-cAMP antibody marked with a europium cryptate) and the non-specific phosphodiesterase inhibitor IBMX (3-isobutyl-1-methylxanthine; final concentration 1 mM) were added. After 60 minutes the fluorescence transfer, which correlates with the amount of remaining cAMP, was measured with a microplate reader (Rubystar, BMG) at λex=337 nm, λem=620 nm and λem=665 nm. The enzyme activity was calculated from the quotient formed from the measured signal at 665 nm and that at 620 nm. The result was expressed as the percentage inhibition of enzyme activity of the control (without PDE4 inhibitor). The enzyme was omitted for measurement of the basal control. IC50 values (IC50=concentration causing a half-maximal inhibition of control specific activity) were derived from dose response measurements with eight different concentrations (n=2; N=1-3).
Literature: N. Saldou et al., Comparison of recombinant human PDE4 isoforms: interaction with substrate and inhibitors, Cell. Signal. Vol. 10, No. 6, 427-440, 1998

T1 sequence (Q07343 whole entry): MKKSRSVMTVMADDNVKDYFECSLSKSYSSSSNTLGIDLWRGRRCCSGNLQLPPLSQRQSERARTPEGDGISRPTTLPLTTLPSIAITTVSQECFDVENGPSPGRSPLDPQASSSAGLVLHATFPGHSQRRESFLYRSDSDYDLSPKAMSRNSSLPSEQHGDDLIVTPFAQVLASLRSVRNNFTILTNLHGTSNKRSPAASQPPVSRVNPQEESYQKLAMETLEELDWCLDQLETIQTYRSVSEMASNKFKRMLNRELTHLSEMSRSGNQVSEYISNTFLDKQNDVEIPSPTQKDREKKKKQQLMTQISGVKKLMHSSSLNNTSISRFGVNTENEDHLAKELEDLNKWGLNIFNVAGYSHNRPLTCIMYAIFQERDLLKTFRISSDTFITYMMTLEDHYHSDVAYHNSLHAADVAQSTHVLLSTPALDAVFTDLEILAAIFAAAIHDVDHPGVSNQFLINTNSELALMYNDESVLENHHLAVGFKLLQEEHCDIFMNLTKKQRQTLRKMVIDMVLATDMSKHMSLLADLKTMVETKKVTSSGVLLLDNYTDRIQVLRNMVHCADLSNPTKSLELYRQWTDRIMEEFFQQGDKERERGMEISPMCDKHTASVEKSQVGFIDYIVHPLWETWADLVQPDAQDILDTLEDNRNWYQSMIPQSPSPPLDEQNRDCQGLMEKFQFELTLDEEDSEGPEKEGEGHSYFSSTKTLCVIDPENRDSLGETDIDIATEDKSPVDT

| Structure (SMILES) | Inhibition in % [%] | inhibition at 1 µM [%] |
| --- | --- | --- |
| C[S+]([O-])c1cn(-c2ncc(-c3ccccc3F)cn2)c2cc(C(=O)N3CCOCC3)ccc12 (stereo not drawn) [Example 1, (1-(5-(2-fluorophenyl)pyrimidin-2-yl)-3-(methylsulfinyl)-1H-indol-6-yl)(morpholino)methanone] | – | 104 |
| C[S+]([O-])c1cn(-c2ncc(-c3ccc(C(N)=O)cc3F)cn2)c2cc(C(=O)N3CCNCC3)ccc12 (stereo not drawn) [Example 15, 3-Fluoro-4-(2-(3-(methylsulfinyl)-6-(piperazine-1-carbonyl)-1H-indol-1-yl)pyrimidin-5-yl)benzamide] | – | 44 |
| CS(=O)(=O)c1cn(-c2ncc(-c3ccccc3)cn2)c2cc(C(=O)N3CCNCC3)ccc12 [Example 21, (3-(Methylsulfonyl)-1-(5-phenylpyrimidin-2-yl)-1H-indol-6-yl)(piperazin-1-yl)methanone] | – | 32 |
| CC(O)c1cn(-c2ncc(-c3ccccc3F)cn2)c2cc(C(=O)N3CCOCC3)ccc12 (stereo not drawn) [Example 28, (1-(5-(2-fluorophenyl)pyrimidin-2-yl)-3-(1-hydroxyethyl)-1H-indol-6-yl)(morpholino)methanone] | – | 98 |
| C[S+]([O-])c1cn(-c2ncc(-c3cccc(F)c3F)cn2)c2cc(C(=O)N3CCOCC3)ccc12 (stereo not drawn) [Example 30, (1-(5-(2,3-Difluorophenyl)pyrimidin-2-yl)-3-(methylsulfinyl)-1H-indol-6-yl)(morpholino)methanone] | – | 106 |
| C[S+]([O-])c1cn(-c2ncc(-c3ccc(C#N)cc3)cn2)c2cc(C(=O)N3CCOCC3)ccc12 (stereo not drawn) [Example 31, 4-(2-(3-(Methylsulfinyl)-6-(morpholine-4-carbonyl)-1H-indol-1-yl)pyrimidin-5-yl)benzonitrile] | – | 75 |
| C[S+]([O-])c1cn(-c2ncc(-c3ccc(F)cc3)cn2)c2cc(C(=O)N3CCOCC3)ccc12 (stereo not drawn) [Example 32, (1-(5-(4-Fluorophenyl)pyrimidin-2-yl)-3-(methylsulfinyl)-1H-indol-6-yl)(morpholino)methanone] | – | 80 |
| COc1ccc(-c2cnc(-n3cc([S+](C)[O-])c4ccc(C(=O)N5CCOCC5)cc43)nc2)cc1 (stereo not drawn) [Example 33, (1-(5-(4-Methoxyphenyl)pyrimidin-2-yl)-3-(methylsulfinyl)-1H-indol-6-yl)(morpholino)methanone] | – | 88 |
| C[S+]([O-])c1cn(-c2ncc(-c3cccc(F)c3)cn2)c2cc(C(=O)N3CCOCC3)ccc12 (stereo not drawn) [Example 34, (1-(5-(3-Fluorophenyl)pyrimidin-2-yl)-3-(methylsulfinyl)-1H-indol-6-yl)(morpholino)methanone] | – | 90 |
| C[S+]([O-])c1cn(-c2ncc(-c3cccc(C(N)=O)c3)cn2)c2cc(C(=O)N3CCOCC3)ccc12 (stereo not drawn) [Example 35, 3-(2-(3-(Methylsulfinyl)-6-(morpholine-4-carbonyl)-1H-indol-1-yl)pyrimidin-5-yl)benzamide] | – | 67 |
| C[S+]([O-])c1cn(-c2ncc(-c3cccc(S(C)(=O)=O)c3)cn2)c2cc(C(=O)N3CCOCC3)ccc12 (stereo not drawn) [Example 36, (3-(Methylsulfinyl)-1-(5-(3-(methylsulfonyl)phenyl)pyrimidin-2-yl)-1H-indol-6-yl)(morpholino)methanone] | – | 90 |
| Cc1cccc(-c2cnc(-n3cc([S+](C)[O-])c4ccc(C(=O)N5CCOCC5)cc43)nc2)c1 (stereo not drawn) [Example 37, (3-(Methylsulfinyl)-1-(5-(m-tolyl)pyrimidin-2-yl)-1H-indol-6-yl)(morpholino)methanone] | – | 103 |
| COc1ccc(F)c(-c2cnc(-n3cc([S+](C)[O-])c4ccc(C(=O)N5CCOCC5)cc43)nc2)c1 (stereo not drawn) [Example 38, (1-(5-(2-Fluoro-5-methoxyphenyl)pyrimidin-2-yl)-3-(methylsulfinyl)-1H-indol-6-yl)(morpholino)methanone] | – | 102 |
| COc1ccc(-c2cnc(-n3cc([S+](C)[O-])c4ccc(C(=O)N5CCOCC5)cc43)nc2)c(F)c1 (stereo not drawn) [Example 39, (1-(5-(2-Fluoro-4-methoxyphenyl)pyrimidin-2-yl)-3-(methylsulfinyl)-1H-indol-6-yl)(morpholino)methanone] | – | 105 |

Next, values leading:

| Inhibition in % [%] | inhibition at 1 µM [%] | Structure (SMILES) |
| --- | --- | --- |
| 36 | – | CC1CC(C)CN(C(=O)c2ccc3c([S+](C)[O-])cn(-c4ncc(-c5ccccc5F)cn4)c3c2)C1 (single isomer, unassigned) [Example 373, (3,5-Dimethylpiperidin-1-yl)(1-(5-(2-fluorophenyl)pyrimidin-2-yl)-3-(methylsulfinyl)-1H-indol-6-yl)methanone] |
| 70 | – | CC1CN(C(=O)c2ccc3c([S+](C)[O-])cn(-c4ncc(-c5ccccc5F)cn4)c3c2)CC(C)O1 (single isomer, unassigned) [Example 377, (2,6-Dimethylmorpholino)(1-(5-(2-fluorophenyl)pyrimidin-2-yl)-3-(methylsulfinyl)-1H-indol-6-yl)methanone] |
| 31 | – | CC1CN(C(=O)c2ccc3c([S+](C)[O-])cn(-c4ncc(-c5ccccc5F)cn4)c3c2)CC(C)O1 (single isomer, unassigned) [Example 378, (2,6-Dimethylmorpholino)(1-(5-(2-fluorophenyl)pyrimidin-2-yl)-3-(methylsulfinyl)-1H-indol-6-yl)methanone] |
| – | 93 | C[S+]([O-])c1cn(-c2ncc(-c3cccc(C#N)c3)cn2)c2cc(C(=O)N3CCOCC3)ccc12 (stereo not drawn) [Example 40, 3-(2-(3-(Methylsulfinyl)-6-(morpholine-4-carbonyl)-1H-indol-1-yl)pyrimidin-5-yl)benzonitrile] |
| – | 100 | C[S+]([O-])c1cn(-c2ncc(-c3cc(O)ccc3F)cn2)c2cc(C(=O)N3CCOCC3)ccc12 (stereo not drawn) [Example 41, (1-(5-(2-Fluoro-5-hydroxyphenyl)pyrimidin-2-yl)-3-(methylsulfinyl)-1H-indol-6-yl)(morpholino)methanone] |
| – | 86 | C[S+]([O-])c1cn(-c2ncc(-c3ccc(C(N)=O)cc3)cn2)c2cc(C(=O)N3CCOCC3)ccc12 (stereo not drawn) [Example 42, 4-(2-(3-(Methylsulfinyl)-6-(morpholine-4-carbonyl)-1H-indol-1-yl)pyrimidin-5-yl)benzamide] |
| – | 83 | C[S+]([O-])c1cn(-c2ncc(-c3cc(C(N)=O)ccc3F)cn2)c2cc(C(=O)N3CCOCC3)ccc12 (stereo not drawn) [Example 43, 4-Fluoro-3-(2-(3-(methylsulfinyl)-6-(morpholine-4-carbonyl)-1H-indol-1-yl)pyrimidin-5-yl)benzamide] |
| – | 82 | C[S+]([O-])c1cn(-c2ncc(-c3c(F)cccc3F)cn2)c2cc(C(=O)N3CCOCC3)ccc12 (stereo not drawn) [Example 44, (1-(5-(2,6-Difluorophenyl)pyrimidin-2-yl)-3-(methylsulfinyl)-1H-indol-6-yl)(morpholino)methanone] |
| – | 115 | COc1cccc(-c2cnc(-n3cc([S+](C)[O-])c4ccc(C(=O)N5CCOCC5)cc43)nc2)c1 (stereo not drawn) [Example 45, (1-(5-(3-Methoxyphenyl)pyrimidin-2-yl)-3-(methylsulfinyl)-1H-indol-6-yl)(morpholino)methanone] |
| – | 102 | Cc1ccc(-c2cnc(-n3cc([S+](C)[O-])c4ccc(C(=O)N5CCOCC5)cc43)nc2)cc1 (stereo not drawn) [Example 46, (3-(Methylsulfinyl)-1-(5-(p-tolyl)pyrimidin-2-yl)-1H-indol-6-yl)(morpholino)methanone] |
| – | 61 | C[S+]([O-])c1cn(-c2ncc(-c3ccncc3)cn2)c2cc(C(=O)N3CCOCC3)ccc12 (stereo not drawn) [Example 47, (3-(Methylsulfinyl)-1-(5-(pyridin-4-yl)pyrimidin-2-yl)-1H-indol-6-yl)(morpholino)methanone] |
| – | 63 | C[S+]([O-])c1cn(-c2ncc(-c3cccnc3F)cn2)c2cc(C(=O)N3CCOCC3)ccc12 (stereo not drawn) [Example 48, (1-(5-(2-Fluoropyridin-3-yl)pyrimidin-2-yl)-3-(methylsulfinyl)-1H-indol-6-yl)(morpholino)methanone] |
| – | 72 | C[S+]([O-])c1cn(-c2ncc(-c3cccnc3)cn2)c2cc(C(=O)N3CCOCC3)ccc12 (stereo not drawn) [Example 49, (3-(Methylsulfinyl)-1-(5-(pyridin-3-yl)pyrimidin-2-yl)-1H-indol-6-yl)(morpholino)methanone] |
| – | 91 | C[S+]([O-])c1cn(-c2ncc(-c3ccccn3)cn2)c2cc(C(=O)N3CCOCC3)ccc12 (stereo not drawn) [Example 50, (3-(Methylsulfinyl)-1-(5-(pyridin-2-yl)pyrimidin-2-yl)-1H-indol-6-yl)(morpholino)methanone] |
| – | 86 | C[S+]([O-])c1cn(-c2ncc(-c3ccccc3F)cn2)c2cc(C(=O)N3CCCC3)ccc12 (stereo not drawn) [Example 51, (1-(5-(2-Fluorophenyl)pyrimidin-2-yl)-3-(methylsulfinyl)-1H-indol-6-yl)(pyrrolidin-1-yl)methanone] |
| – | 91 | CN(C)C(=O)c1ccc2c([S+](C)[O-])cn(-c3ncc(-c4ccccc4F)cn3)c2c1 (stereo not drawn) [Example 52, 1-(5-(2-Fluorophenyl)pyrimidin-2-yl)-N,N-dimethyl-3-(methylsulfinyl)-1H-indole-6-carboxamide] |
